Molecules are shown by their SMILES. Active and inactive are the calls of the source. No rule for the calls is given here.

The target in assay [1] is T1, High affinity choline transporter 1 (Homo sapiens, UniProt Q9GZV3).
T1 sequence (Q9GZV3 whole entry): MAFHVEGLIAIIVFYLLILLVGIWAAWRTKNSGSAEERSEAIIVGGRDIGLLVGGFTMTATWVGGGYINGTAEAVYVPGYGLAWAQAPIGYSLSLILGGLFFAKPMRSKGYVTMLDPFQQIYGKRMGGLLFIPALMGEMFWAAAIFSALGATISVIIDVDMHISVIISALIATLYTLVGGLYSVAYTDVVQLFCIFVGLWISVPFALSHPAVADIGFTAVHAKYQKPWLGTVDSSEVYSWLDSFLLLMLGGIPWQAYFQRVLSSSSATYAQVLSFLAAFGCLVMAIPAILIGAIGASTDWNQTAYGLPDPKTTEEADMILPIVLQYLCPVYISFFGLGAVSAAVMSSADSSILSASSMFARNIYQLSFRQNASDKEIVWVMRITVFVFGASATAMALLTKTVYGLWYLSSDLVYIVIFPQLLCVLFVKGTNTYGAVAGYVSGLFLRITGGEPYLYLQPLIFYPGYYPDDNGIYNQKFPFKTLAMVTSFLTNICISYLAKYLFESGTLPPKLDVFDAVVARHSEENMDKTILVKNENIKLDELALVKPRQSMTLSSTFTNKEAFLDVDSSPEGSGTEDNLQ
As to the kind of experiment: human choline transporter blockers, potency – cell-based, 5-point CRC, membrane potential dye, dose response (AID 504840). It is filed as functional.

The target in assay [2] is T1, High affinity choline transporter 1. The experiment in a line: human choline transporter blockers, potency – cell-based, 10-point CRC, membrane potential dye, dose response (AID 588401).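 Also: membrane potential dye fluorescence of choline-evoked depolarization via CHT.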 In kind it is functional.

With `CC1CCCCC1NC(=O)C1CCCN(S(=O)(=O)c2ccc(-n3cnnn3)cc2)C1` (configuration not stated), the concentration for half-maximal inhibition (IC50) (usually the concentration at which inhibition is half-maximal) was 5.75 µM (active) in assay [1] and 3.98 µM (active) in assay [2].

The values above are taken from ChEMBL document CHEMBL1201862, “PubChem BioAssay data set” (2004).
